# How the values were obtained:
# [1] = in vivo; cited from earlier work
# [2] = rat model of diet-induced obesity; cited from earlier work
# [3] = cited from earlier work
# [4] = Open-label extension of the Phase 2 study TM005 (additional 24 weeks, 48 weeks in total); format: in vivo, human
# Procedure: All subjects: co-administration of 0.5 mg tesofensine/50 mg metoprolol ER daily for 24 weeks. One tablet for each product.
# TM005 was a 24-week phase 2, double-blind, randomized, placebo-controlled, single-centre, safety and efficacy study followed by a 24-week open-label extension treatment period designed to evaluate overall safety and tolerability of Tesomet (co-administration of 0.5 mg tesofensine and 50 mg metoprolol) in patients with hypothalamic obesity (HO).
# The primary endpoint of the study was overall safety and tolerability measured by all safety data collected during the study including recorded adverse events, laboratory data, blood pressure, and heart rate. The secondary efficacy endpoints included bodyweight, waist circumference, glycemic control and other measures. In the double-blind (DB) period of the study, patients received either Tesomet or matching placebo (2:1 randomization) for 24 weeks.
# A total of 21 patients (13 Tesomet, 8 placebo) were randomized into the double blind (DB) period. All patients who completed the DB period of the study were provided the opportunity to receive Tesomet in an open-label extension (OLE) period of the study for an additional 24 weeks. All 18 patients who completed the DB period chose to participate in the OLE period and all of these patients completed the OLE period. […]
# [5] = Phase 2 double-blind, randomized, placebo-controlled trial of Tesomet in hypothalamic obesity, Part 1 (24 weeks); format: in vivo, human; details: after 24 weeks of treatment (FIG. 3a)
# Excerpt: The overall safety and tolerability of co-administration of tesofensine and metoprolol (Tesomet) in subjects with hypothalamic injury-induced obesity (HIO) was studied in a phase 2, double-blind, randomized, placebo-controlled, single-center safety and efficacy study followed by with an open-label extension, in total 48 weeks: • Part 1:24 Weeks double blinded treatment followed by • Part 2:24 weeks open lable extension.
# The studied population were subjects suffering from obesity developed in relation to damage to the hypothalamus (HO), whether it is from an injuring trauma, bleeding, infaction, tumor, surgery or irradiation. […]
# This randomized, double-blind, placebo-controlled Phase 2 trial evaluated Tesomet (tesofensine 0.5 mg+metoprolol 50 mg) administered daily in patients with HO, conducted at Rigshospitalet in Copenhagen, Denmark.
# The primary endpoint of the study was overall safety and tolerability measured by all safety data collected during the study including recorded adverse events, laboratory data, blood pressure, and heart rate. […]
# Continuous efficacy secondary endpoints were compared between treatment arms by means using Analysis of Co-variance (ANCOVA) including treatment as fixed factor and baseline value as covariate. Estimates and 95% confidence intervals of treatment differences were calculated
structure (smiles),measurement,setting,value
"COCCc1ccc(OCC(O)CNC(C)C)cc1 (centres unmarked) [metoprolol, 1-(Isopropylamino)-3-[4-(2-methoxyethyl)-phenoxy]-propan-2-ol]",Half-life of beta blockers,[1],3 to 4 h
"CCOC[C@@H]1[C@@H](c2ccc(Cl)c(Cl)c2)C[C@@H]2CC[C@H]1N2C [Tesofensine, (1R,2R,3S,5S)-3-(3,4-dichlorophenyl)-2-(ethoxymethyl)-8-methyl-8-azabicyclo[3.2.1]octane]",Body weight in DIO rats,[2],robust and sustained weight loss
same,Nocturnal energy expenditure,[3]; human subjects,increase nocturnal energy expenditure
same,"Weight loss in obese patients, corrected for placebo and diet effects",[3]; long-term treatment,about 10%
same,Share of patients with at least 10% weight loss,[4]; FIG. 3b,33-41%
same,Body weight after 48 weeks of Tesomet,"[4]; baseline to Week 48, 24 weeks double-blind + 24 weeks open-label (FIG. 5)",maintained
same,Share of patients with at least 5% weight loss,[5],approximately ⅔
"COc1ccccc1OCCNCC(O)COc1cccc2[nH]c3ccccc3c12 (racemic) [carvedilol, (±)-[3-(9H-carbazol-4-yloxy)-2-hydroxypropyl][2-(2-methoxyphenoxy)ethyl]amine]",Half-life of beta blockers,[1],7 to 10 h
